According to US20070093469A1, “Substituted azetidine compounds as cyclooxygenase-1-cyclooxygenase-2 inhibitors, and their preparation and use as medicaments” (LABORATORIOS DEL DR. ESTEVE S.A, priority 2004, published 2007):

Experiments:
Cox-1 enzyme = target: T1, Cox-1 enzyme (Ovis aries, UniProt P05979); test: Cox-1/Cox-2 enzyme assay (Cox-1); assay type: biochemical; details: for IC50: enzyme assay; for inhibition at 50 µM: read-out: % inhibition 5 × 10^−5 M COX-1
T1 construct: purchased Cayman Chemical 60100
T1 sequence (P05979 25-600): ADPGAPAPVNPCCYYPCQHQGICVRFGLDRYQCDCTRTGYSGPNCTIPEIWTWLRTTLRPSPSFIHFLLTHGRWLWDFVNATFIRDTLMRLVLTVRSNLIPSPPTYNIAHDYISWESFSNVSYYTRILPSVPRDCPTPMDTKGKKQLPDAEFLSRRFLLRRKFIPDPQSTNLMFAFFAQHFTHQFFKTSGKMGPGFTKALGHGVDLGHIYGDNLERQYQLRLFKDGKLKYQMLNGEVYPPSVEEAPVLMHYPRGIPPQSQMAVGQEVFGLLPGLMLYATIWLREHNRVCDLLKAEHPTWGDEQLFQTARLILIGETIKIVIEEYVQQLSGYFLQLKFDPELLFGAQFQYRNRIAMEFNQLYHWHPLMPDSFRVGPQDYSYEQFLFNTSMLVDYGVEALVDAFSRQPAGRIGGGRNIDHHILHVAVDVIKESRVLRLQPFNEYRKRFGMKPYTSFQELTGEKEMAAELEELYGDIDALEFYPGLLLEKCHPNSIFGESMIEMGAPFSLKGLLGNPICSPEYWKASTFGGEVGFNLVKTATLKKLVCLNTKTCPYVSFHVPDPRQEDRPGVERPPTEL
Protocol: (§1) I. Cox-1/Cox-2 Enzyme Assay:
(§2) The Cox-1/Cox-2 enzyme assay for the inventive azetidine compounds is carried out according to the following description:
(§3) Immediately after the addition of the substrate, the slope corresponding to the optical density increase at 480 nm is recorded for 1 minute. The reaction is monitored with a Hewlett-Packard 8452A spectrophotometer.

Cox-2 enzyme = target: T2, Cox-2 enzyme (Ovis aries, UniProt P79208); test: Cox-1/Cox-2 enzyme assay (Cox-2); assay type: biochemical; details: for IC50: enzyme assay
T2 construct: purchased Cayman Chemical 60120
T2 sequence (P79208 17-603): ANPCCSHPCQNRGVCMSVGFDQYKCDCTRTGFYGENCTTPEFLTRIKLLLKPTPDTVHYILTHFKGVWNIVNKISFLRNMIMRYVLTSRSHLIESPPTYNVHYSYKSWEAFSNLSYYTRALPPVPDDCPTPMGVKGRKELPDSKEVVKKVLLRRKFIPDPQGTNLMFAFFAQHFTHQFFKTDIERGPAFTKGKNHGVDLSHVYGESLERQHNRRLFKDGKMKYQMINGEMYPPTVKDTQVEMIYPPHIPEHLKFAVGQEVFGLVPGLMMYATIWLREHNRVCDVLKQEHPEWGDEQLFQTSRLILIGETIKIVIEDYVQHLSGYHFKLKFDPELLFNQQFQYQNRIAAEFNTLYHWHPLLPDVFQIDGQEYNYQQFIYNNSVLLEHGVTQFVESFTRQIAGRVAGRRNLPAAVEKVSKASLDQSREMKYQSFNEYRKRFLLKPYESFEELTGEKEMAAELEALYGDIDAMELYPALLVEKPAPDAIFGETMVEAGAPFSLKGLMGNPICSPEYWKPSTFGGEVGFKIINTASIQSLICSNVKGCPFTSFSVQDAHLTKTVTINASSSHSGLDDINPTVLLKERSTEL
Protocol: as §1, §2, §3

Cox-1 = target: T3, Cox-1 (Homo sapiens, UniProt P23219); test: Cox-1 activity in human whole blood (TXB2); assay type: cell-based; details: read-out: hWB inhibition COX-1 IC50
T3 construct: from tissue; host or cells: fresh human whole blood
Protocol: (§4) II. Determination of Cox-1- and Cox-2-Activity in Human Whole Blood
(§5) The Cox-1- and Cox-2-activity in human whole blood is determined according to a modification of the method described in the publication of C. Brideau et al., “A human whole blood assay for clinical evaluation of biochemical efficacy of cyclooxygenase inhibitors”, Inflamm Res 1996; 45: 68-74. The respective part of the description is hereby incorporated by reference and forms part of the present disclosure.
For Cox-1 activity determination, fresh human blood is distributed in a volume of 0.5 ml to silicone Eppendorf tubes, into which 2 μl of the compound to be tested or dimethylsulfoxide (DMSO) at a final concentration of 0.4% (volume/volume). The tubes are inverted for homogenization and incubated for 1 hour at 37° C. under slight stirring. Afterwards they are centrifuged for 15 min at 10500 g and 100 μl of serum is collected. Proteins are precipitated by the addition of 400 μl of methanol to each tube, tubes were centrifuged for 10 minutes at 5000 g and 300 μl of supernatant is aspirated and then dried under nitrogen atmosphere.
Tromboxane B2 (TXB2) concentration is quantified using an assay kit (Caymann Chemical, Ann Arbor, Mich., U.S.A., Catalogue number 519031) after reconstitution into 300 μl assay buffer supplied in the assay kit.

Cox-2 = target: T4, Cox-2 (Homo sapiens, UniProt P35354); test: Cox-2 activity in human whole blood (LPS, PGE2); assay type: cell-based; details: read-out: hWB inhibition COX-2 IC50
T4 construct: 0.5 ml of fresh human blood; from tissue; host or cells: fresh human whole blood stimulated with E. coli 0111:B4 LPS
T4 sequence (P35354 18-604): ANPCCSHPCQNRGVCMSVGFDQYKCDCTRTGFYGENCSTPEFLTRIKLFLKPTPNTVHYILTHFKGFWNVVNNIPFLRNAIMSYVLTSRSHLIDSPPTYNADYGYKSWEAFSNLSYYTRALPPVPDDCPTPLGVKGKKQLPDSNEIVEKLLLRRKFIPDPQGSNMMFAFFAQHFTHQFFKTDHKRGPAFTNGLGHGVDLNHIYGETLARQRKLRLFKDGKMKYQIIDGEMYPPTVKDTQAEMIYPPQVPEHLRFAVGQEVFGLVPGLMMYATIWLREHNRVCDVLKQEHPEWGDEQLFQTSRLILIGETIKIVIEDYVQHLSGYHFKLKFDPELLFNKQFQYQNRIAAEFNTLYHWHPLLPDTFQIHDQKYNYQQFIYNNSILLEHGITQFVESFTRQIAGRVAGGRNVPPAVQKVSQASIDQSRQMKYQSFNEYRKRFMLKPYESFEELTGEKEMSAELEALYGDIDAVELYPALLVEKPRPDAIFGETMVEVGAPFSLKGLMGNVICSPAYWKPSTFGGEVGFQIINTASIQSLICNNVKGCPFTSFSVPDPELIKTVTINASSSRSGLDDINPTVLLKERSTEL
Protocol: as §4, §5
For Cox-2 activity determination, tubes are prepared with 2 μl of the compound to be tested or DMSO, 12 μg/ml of aspirine, 9 μl of 1% (weight/volume) sodium heparine and 0.5 ml of fresh human blood. Samples are pre-incubated at 37° C. during 15 minutes and E. coli 0111:B4 LPS (from Sigma Chemical, St. Louis, Mo. U.S.A., catalogue number L-3012) are added for incubation during 24 h at 37° C. The samples are centrifuged for 100 μl of plasma collection. 400 μl of Ethyl acetate and 1% (volume/volume) methanol are added to each sample and the tubes are stirred and centrifuged for 10 minutes at 5000 g at 4° C. 300μl of supernatant are aspirated and evaporated under nitrogen atmosphere. Prostaglandin E2 concentration is quantified using an assay kit from Cayman Chemical, Ann-Arbor, Mich., U.S.A. (Catalogue number: 514010 ) after reconstitution into 300 μl assay buffer supplied in the assay kit.

rats = test: Test for antiarthritic activity in rats (adjuvant); assay type: in vivo; details: Rattus norvegicus, daily oral route from day 15, read on day 25
Protocol: V: Test for Antiarthritic Activity in Rats
The test for antiarthritic activity is carried out as described in the publication of Anderson et al., J. Clin. Invest. 97, 11, 2672-2679, (1996). The respective part of the description is hereby incorporated by reference and forms part of the present disclosure.
On day 0 of the experiment, the volumes of the contralateral paws to those injected, i.e. left hind paws, are measured by means of a pletismometer, the readings of which are expressed in ml.
Next, each rat is injected the adjuvant, consisting of 1 mg of Mycobacterium butyricum suspended in 0.1 ml of mineral oil, via subplantar route in the right hind paw.
Approximately every day, and for 15 days after the injection of adjuvant, the volumes of non-injected hind paws (contralateral) are measured again. […]
On day 15 of the experiment, daily administration of the compounds to be tested via oral route is started, and on each day, the volumes of non-injected hind paws is recorded.
On Day 25 of the experiment, the body weights and non-injected hind paws (contralateral) volumes are measured for the last time, and these values were used to determine the activities.

T3 sequence (P23219 24-599): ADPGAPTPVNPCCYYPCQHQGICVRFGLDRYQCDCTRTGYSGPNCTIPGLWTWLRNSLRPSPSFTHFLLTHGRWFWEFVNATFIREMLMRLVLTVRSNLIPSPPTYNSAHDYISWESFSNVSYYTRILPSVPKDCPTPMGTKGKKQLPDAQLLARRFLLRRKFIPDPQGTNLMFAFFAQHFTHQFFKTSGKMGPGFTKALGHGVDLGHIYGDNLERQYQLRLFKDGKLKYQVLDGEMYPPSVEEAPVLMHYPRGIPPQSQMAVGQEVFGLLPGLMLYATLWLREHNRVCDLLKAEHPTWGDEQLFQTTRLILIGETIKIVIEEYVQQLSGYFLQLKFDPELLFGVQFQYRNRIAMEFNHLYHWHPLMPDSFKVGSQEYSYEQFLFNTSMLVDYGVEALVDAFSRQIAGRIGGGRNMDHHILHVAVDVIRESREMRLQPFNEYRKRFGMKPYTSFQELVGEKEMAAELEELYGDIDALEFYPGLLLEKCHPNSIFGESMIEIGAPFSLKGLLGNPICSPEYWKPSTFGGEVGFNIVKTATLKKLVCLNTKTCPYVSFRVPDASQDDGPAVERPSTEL

Row | SMILES | IC50 (Cox-1 enzyme) [nM] | IC50 (Cox-2 enzyme) [nM] | IC50 (Cox-1) [nM] | IC50 (Cox-2) [nM] | ED50 (rats) [mg/kg] | melting point [°C] | inhibition at 50 µM (Cox-1 enzyme) [%] | inhibition at 50 µM (Cox-2 enzyme; read-out: % inhibition 5 × 10^−5 M COX-2) [%]
1 | CC(C)(C)c1cc(C(=O)N2CC(O)C2)cc(C(C)(C)C)c1O [Example 1, (3,5-di-tert-butyl-4-hydroxy-phenyl)-(3-hydroxy-azetidin-1-yl)-methanone] | 37700 | 1510 | 100 | 200 | 0.5 | 185 to 189 |  | 
2 | CC1(O)CN(C(=O)c2cc(C(C)(C)C)c(O)c(C(C)(C)C)c2)C1 [Example 3, (3,5-di-tert-butyl-4-hydroxy-phenyl)-(3-hydroxy-3-methyl-azetidin-1-yl)-methanone] | 349000 | 3510 | 100 | 100 | 0.34 | 148 to 153 |  | 
3 | CC(C)(C)c1cc(C(=O)N2CC(Br)C2)cc(C(C)(C)C)c1O [Example 7, (3-Bromo-azetidin-1-yl)-(3,5-di-tert-butyl-4-hydroxy-phenyl)-methanone] |  | 200 |  |  |  | 160 to 163 | 35 | 
4 | CC(C)(C)c1cc(CC(=O)N2CC(O)C2)cc(C(C)(C)C)c1O [Example 18, 2-(3,5-di-tert-butyl-4-hydroxy-phenyl)-1-(3-hydroxy-azetidin-1-yl)-ethanone] |  |  |  |  |  | 154 to 156 | 4 | 1
